# Test results reported in patent publication US7910751B2, “Heterocyclidene acetamide derivative” (Mochida Pharmaceutical Co., Ltd., priority 2005, dated 2011).
# Molecular target: T1, human TRPV1 (Homo sapiens, UniProt Q8NER1)
# T1 construct: expressed in transfected cells; host or cells: CHO-K1
# Assay: Measurement of capsaicin-induced Ca influx in human TRPV1 transformed CHO cell line using FDSS-6000
# Format: cell-based
# Conditions: concentration at which the capsaicin concentration-reaction curve is shifted two times to the right, human TRPV1 transformed CHO cells
# T1 sequence (Q8NER1 whole entry): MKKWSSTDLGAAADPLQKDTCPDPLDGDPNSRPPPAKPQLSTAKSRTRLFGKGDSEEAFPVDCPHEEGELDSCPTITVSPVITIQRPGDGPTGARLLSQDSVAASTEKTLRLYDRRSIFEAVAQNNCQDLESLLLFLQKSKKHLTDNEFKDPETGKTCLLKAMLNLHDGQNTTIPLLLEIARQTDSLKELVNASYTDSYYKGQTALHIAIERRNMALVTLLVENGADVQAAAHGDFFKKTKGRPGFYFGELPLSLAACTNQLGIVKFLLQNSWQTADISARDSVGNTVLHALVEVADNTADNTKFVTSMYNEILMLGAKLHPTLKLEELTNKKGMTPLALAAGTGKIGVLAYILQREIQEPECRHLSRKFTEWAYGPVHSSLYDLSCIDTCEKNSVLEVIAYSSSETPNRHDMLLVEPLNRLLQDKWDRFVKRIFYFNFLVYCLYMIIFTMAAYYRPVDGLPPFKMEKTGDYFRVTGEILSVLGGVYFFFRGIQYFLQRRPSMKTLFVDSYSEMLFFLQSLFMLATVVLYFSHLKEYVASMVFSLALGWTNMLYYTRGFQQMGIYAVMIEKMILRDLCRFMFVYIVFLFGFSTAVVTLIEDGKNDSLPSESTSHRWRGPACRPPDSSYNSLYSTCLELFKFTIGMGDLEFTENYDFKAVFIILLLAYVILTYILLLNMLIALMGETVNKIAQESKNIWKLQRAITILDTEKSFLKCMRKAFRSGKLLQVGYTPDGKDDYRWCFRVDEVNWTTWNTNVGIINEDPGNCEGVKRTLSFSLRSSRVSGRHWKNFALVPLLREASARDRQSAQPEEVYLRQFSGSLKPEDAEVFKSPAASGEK
row,Compound,A2 VALUE
1,"CC1(C)C/C(=C\C(=O)Nc2cccc3c2CC(O)CC3)c2ccc(C(F)(F)F)cc2O1 (stereo not drawn) [Example 243, (E)-2-(7-trifluoromethyl-2,2-dimethylchroman-4-ylidene)-N-(7-hydroxy-5,6,7,8-tetrahydronaphthalen-1-yl)acetamide]",A (compounds of the present invention having an A2 value of less than 100 nM are represented by A)
2,"O=C(/C=C1\CCCOc2cc(C(F)(F)F)ccc21)Nc1ccc2c(c1)N(CCO)C(=O)CO2 [Example 234, (E)-2-(8-trifluoromethyl-3,4-dihydrobenzo[b]oxepin-5(2H)-ylidene)-N-(4-(2-hydroxyethyl)-2H-1,4-benzoxazin-3(4H)-on-6-yl)acetamide]",A (compounds of the present invention having an A2 value of less than 100 nM are represented by A)
3,"O=C(/C=C1\CCCOc2cc(C(F)(F)F)ccc21)Nc1ccc(Cc2ccncc2)cc1 [Example 29, (E)-2-(8-trifluoromethyl-3,4-dihydrobenzo[b]oxepin-5(2H)-ylidene)-N-(4-((pyridin-4-yl)methyl)phenyl)acetamide]",B (compounds having an A2 value of 100 nM or more are represented by B)
4,O=C(/C=C1\CCCOc2cc(C(F)(F)F)ccc21)Nc1ccc2c(c1)N(CCO)CCO2 [Example 233],A (compounds of the present invention having an A2 value of less than 100 nM are represented by A)
5,"O=C1CCc2cccc(NC(=O)/C=C3\CCCOc4cc(C(F)(F)F)ccc43)c2C1 [Example 61, (E)-2-(8-trifluoromethyl-3,4-dihydrobenzo[b]oxepin-5(2H)-ylidene)-N-(7-oxo-5,6,7,8-tetrahydronaphthalen-1-yl)acetamide]",A (compounds of the present invention having an A2 value of less than 100 nM are represented by A)
6,"O=C(/C=C1\CCCOc2cc(C(F)(F)F)ccc21)Nc1ccc(Cl)c(C(F)(F)F)c1 [Example 136, (E)-2-(8-trifluoromethyl-3,4-dihydrobenzo[b]oxepin-5(2H)-ylidene)-N-(4-chloro-3-(trifluoromethyl)phenyl)acetamide]",A (compounds of the present invention having an A2 value of less than 100 nM are represented by A)
7,"O=C(/C=C1\CCOc2cc(C(F)(F)F)ccc21)Nc1cccc2ccc(O)cc12 [Example 120, (E)-N-(7-hydroxynaphthalen-1-yl)-2-(7-trifluoromethyl-chroman-4-ylidene)acetamide]",A (compounds of the present invention having an A2 value of less than 100 nM are represented by A)
8,"CC(C)CCC(=O)N1CC/C(=C\C(=O)Nc2cccc3c2CC(O)CC3)c2ccc(C(F)(F)F)cc21 (stereo not drawn) [Example 86, (E)-2-(1-(4-methylpentanoyl)-7-trifluoromethyl-2,3-dihydroquinolin-4(1H)-ylidene)-N-(7-hydroxy-5,6,7,8-tetrahydronaphthalen-1-yl)acetamide]",A (compounds of the present invention having an A2 value of less than 100 nM are represented by A)
9,"O=C(/C=C1\CCCNc2cc(C(F)(F)F)ccc21)Nc1ccc2cccnc2c1 [Example 191, (E)-2-(8-trifluoromethyl-1,2,3,4-tetrahydro-5H-benzo[b]azepin-5-ylidene)-N-(quinolin-7-yl)acetamide]",A (compounds of the present invention having an A2 value of less than 100 nM are represented by A)
10,"CC(=O)N1CC/C(=C\C(=O)Nc2ccc3cccnc3c2)c2ccc(C(F)(F)F)cc21 [Example 48, (E)-2-(1-acetyl-7-trifluoromethyl-2,3-dihydroquinolin-4(1H)-ylidene)-N-(quinolin-7-yl)acetamide]",A (compounds of the present invention having an A2 value of less than 100 nM are represented by A)
11,"CC(C)CCC(=O)N1CC/C(=C\C(=O)Nc2ccc3cccnc3c2)c2ccc(C(F)(F)F)cc21 [Example 78, (E)-2-(1-(4-methylpentanoyl)-7-trifluoromethyl-2,3-dihydroquinolin-4(1H)-ylidene)-N-(quinolin-7-yl)acetamide]",A (compounds of the present invention having an A2 value of less than 100 nM are represented by A)
12,"O=C(/C=C1\CCN(C(=O)CCCC(F)(F)F)c2cc(C(F)(F)F)ccc21)Nc1cccc2c1CC(O)CC2 (stereo not drawn) [Example 93, (E)-2-(1-(5,5,5-trifluoropentanoyl)-7-trifluoromethyl-2,3-dihydroquinolin-4(1H)-ylidene)-N-(7-hydroxy-5,6,7,8-tetrahydronaphthalen-1-yl)acetamide]",A (compounds of the present invention having an A2 value of less than 100 nM are represented by A)
13,"O=C(/C=C1\CCCOc2cc(C(F)(F)F)ccc21)Nc1ccc(Oc2ccccc2)nc1 [Example 22, (E)-2-(8-trifluoromethyl-3,4-dihydrobenzo[b]oxepin-5(2H)-ylidene)-N-(6-phenoxypyridin-3-yl)acetamide]",B (compounds having an A2 value of 100 nM or more are represented by B)
14,"CCC(CC)C(=O)N1CC/C(=C\C(=O)Nc2ccc3cccnc3c2)c2ccc(C(F)(F)F)cc21 [Example 51, (E)-2-(1-(2-ethylbutanoyl)-7-trifluoromethyl-2,3-dihydroquinolin-4(1H)-ylidene)-N-(quinolin-7-yl)acetamide]",A (compounds of the present invention having an A2 value of less than 100 nM are represented by A)
15,"CC1(C)CC1C(=O)N1CC/C(=C\C(=O)Nc2cccc3c2CC(O)CC3)c2ccc(C(F)(F)F)cc21 (stereo not drawn) [Example 109, (E)-2-(7-trifluoromethyl-2,3-dihydro-1-((2,2-dimethylcyclopropane)carbonyl)quinolin-4(1H)-ylidene)-N-(7-hydroxy-5,6,7,8-tetrahydronaphthalen-1-yl)acetamide]",A (compounds of the present invention having an A2 value of less than 100 nM are represented by A)
16,"O=C(/C=C1\CCOc2cc(OC(F)(F)F)ccc21)Nc1cccc2c1CC(O)CC2 (stereo not drawn) [Example 210, (E)-2-(7-trifluoromethoxy-chroman-4-ylidene)-N-(7-hydroxy-5,6,7,8-tetrahydronaphthalen-1-yl)acetamide]",A (compounds of the present invention having an A2 value of less than 100 nM are represented by A)
17,"O=C(/C=C1\CCN(C(=O)CCC(F)(F)F)c2cc(C(F)(F)F)ccc21)Nc1cccc2c1CC(O)CC2 (stereo not drawn) [Example 91, (E)-2-(1-(4,4,4-trifluorobutanoyl)-7-trifluoromethyl-2,3-dihydroquinolin-4(1H)-ylidene)-N-(7-hydroxy-5,6,7,8-tetrahydronaphthalen-1-yl)acetamide]",A (compounds of the present invention having an A2 value of less than 100 nM are represented by A)
18,"Cc1sc2cnccc2c1NC(=O)/C=C1\CCCOc2cc(C(F)(F)F)ccc21 [Example 221, (E)-2-(8-trifluoromethyl-3,4-dihydrobenzo[b]oxepin-5(2H)-ylidene)-N-(2-methylthieno[2,3-c]pyridin-3-yl)acetamide]",A (compounds of the present invention having an A2 value of less than 100 nM are represented by A)
